# From patent US20070117743A1, “New antitumoral compounds” (priority 2003, published 2007)
# Like-named read-outs stand apart in the source and are kept apart here.
# How the values were obtained:
# Format in all cases: cell-based, human
# [1] = test system: IGROV-ET; assay: SRB colorimetric assay of cell growth and viability, IGROV-ET; settings: 48 hours exposure; for CC50: read-out: LC50 IGROV-ET
# [2] = test system: SK-BR-3; assay: SRB colorimetric assay of cell growth and viability, SK-BR-3; settings: 48 hours exposure
# [3] = test system: K-562; assay: SRB colorimetric assay of cell growth and viability, K-562; settings: 48 hours exposure; for CC50: read-out: LC50 K-562
# [4] = test system: DU-145; assay: SRB colorimetric assay of cell growth and viability, DU-145; settings: 48 hours exposure
# [5] = test system: PANC-1; assay: SRB colorimetric assay of cell growth and viability, PANC-1; settings: 48 hours exposure; for CC50: read-out: LC50 PANC-1
# [6] = test system: HeLa-APL; assay: SRB colorimetric assay of cell growth and viability, HeLa-APL; settings: 48 hours exposure; for CC50: read-out: LC50 HELA-APL
# [7] = test system: HT-29; assay: SRB colorimetric assay of cell growth and viability, HT-29; settings: 48 hours exposure; for GI50: read-out: GI50 HT-29; for CC50: read-out: LC50 HT-29
# [8] = test system: IGROV-1; assay: SRB colorimetric assay of cell growth and viability, IGROV-1; settings: 48 hours exposure
# [9] = test system: HeLa; assay: SRB colorimetric assay of cell growth and viability, HeLa; settings: 48 hours exposure; for CC50: read-out: LC50 HELA
# [10] = test system: A-549; assay: SRB colorimetric assay of cell growth and viability, A-549; settings: 48 hours exposure; for GI50: read-out: GI50 A-549; for CC50: read-out: LC50 A-549
# [11] = test system: LoVo-Dox; assay: SRB colorimetric assay of cell growth and viability, LoVo-Dox; settings: 48 hours exposure; for CC50: read-out: LC50 LOVO-DOX
# How it was run: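 SRB staining (0.4% wt/vol in 1% acetic acid, 10 min, room temperature) of cells fixed with 50% TCA follows a 48-hour exposure to compound. Plating density is 5×10^3 cells/well, and the OD is taken at 490 nm.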
# [12] = test system: SK-MEL-28; assay: SRB colorimetric assay of cell growth and viability, SK-MEL-28; settings: 48 hours exposure; for CC50: read-out: LC50 MEL-28
# [13] = test system: LNCaP; assay: SRB colorimetric assay of cell growth and viability, LNCaP; settings: 48 hours exposure; for GI50: read-out: GI50 LN-caP; for CC50: read-out: LC50 LN-caP
# [14] = test system: LoVo; assay: SRB colorimetric assay of cell growth and viability, LoVo; settings: 48 hours exposure; for CC50: read-out: LC50 LOVO
smiles,measurement,setting,value
"C/C=C1\NC(=O)[C@H](Cc2ccccc2)NC(=O)[C@@H](C(C)C)NC(=O)[C@@H]([C@@H](C)CC)NC(=O)[C@H](NC(=O)[C@H](NC(=O)[C@H](CCCN)NC(=O)[C@H]2CCCN2C(=O)[C@H](NC(=O)[C@@H](NC(=O)[C@@H](NC(=O)[C@H](NC(=O)CCCCCCCCCC)C(C)C)[C@@H](C)O)C(C)C)C(C)C)[C@@H](C)CC)[C@@H](C)OC(=O)[C@H](C(C)C)NC1=O [Compound 15, [Und^14]-KF]",GI50,[1],235 nM
same,TGI IGROV-ET,[1],8.41E−07 Molar
same,CC50,[1],3.34 µM
same,GI50,[2],26.7 nM
same,LC50,[2],468 nM
same,TGI SK-BR-3,[2],7.43E−08 Molar
same,GI50,[3],1150 nM
same,TGI K-562,[3],2.18E−06 Molar
same,CC50,[3],4.1 µM
same,GI50,[4],162 nM
same,LC50 (concentration causing 50% net cell kill),[4],1040 nM
same,TGI DU-145,[4],3.53E−07 Molar
same,GI50,[5],1230 nM
same,TGI PANC-1,[5],2.28E−06 Molar
same,CC50,[5],4.2 µM
same,GI50,[6],229 nM
same,TGI HELA-APL,[6],8.47E−07 Molar
same,CC50,[6],3.55 µM
same,TGI HT-29,[7],2.70E−07 Molar
same,GI50,[7],127 nM
same,CC50,[7],574 nM
same,GI50,[8],158 nM
same,LC50 (concentration causing 50% net cell killing),[8],1540 nM
same,TGI IGROV,[8],3.72E−07 Molar
same,GI50,[9],120 nM
same,TGI HELA,[9],2.65E−07 Molar
same,CC50,[9],588 nM
same,TGI A-549,[10],3.39E−07 Molar
same,GI50,[10],143 nM
same,CC50,[10],1690 nM
same,GI50,[11],40.8 nM
same,TGI LOVO-DOX,[11],1.65E−07 Molar
same,CC50,[11],478 nM
same,GI50,[12],169 nM
same,TGI MEL-28,[12],4.45E−07 Molar
same,CC50,[12],2040 nM
same,TGI LN-caP,[13],1.44E−06 Molar
same,GI50,[13],529 nM
same,CC50,[13],3.48 µM
same,GI50,[14],117 nM
same,TGI LOVO,[14],2.67E−07 Molar
same,CC50,[14],604 nM
"C/C=C1\NC(=O)[C@H](Cc2ccccc2)NC(=O)[C@@H](C(C)C)NC(=O)[C@@H]([C@@H](C)CC)NC(=O)[C@H](NC(=O)[C@H](NC(=O)[C@H](CCCNC(=O)CCCC[C@@H]2SC[C@@H]3NC(=O)N[C@@H]32)NC(=O)[C@H]2CCCN2C(=O)[C@H](NC(=O)[C@@H](NC(=O)[C@@H](NC(=O)[C@H](NC(=O)CCCC(C)C)C(C)C)[C@@H](C)O)C(C)C)C(C)C)[C@@H](C)CC)[C@@H](C)OC(=O)[C@H](C(C)C)NC1=O [Compound 99, [Orn(Biot)^8]-Kahalalide F]",GI50,[1]; SRB,874 nM
same,TGI IGROV-ET,[1]; SRB,1.88E−06 Molar
same,CC50,[1]; SRB,4.04 µM
same,GI50,[2]; SRB,140 nM
same,LC50,[2]; SRB,575 nM
same,TGI SK-BR-3,[2]; SRB,2.84E−07 Molar
same,GI50,[3]; K-562,3300 nM
same,TGI K-562,[3]; K-562,5.87E−06 Molar
same,CC50,[3]; K-562,5.87 µM
same,GI50,[4]; SRB,757 nM
same,LC50 (concentration causing 50% net cell kill),[4]; SRB,3260 nM
same,TGI DU-145,[4]; SRB,1.57E−06 Molar
same,GI50,[5]; PANC-1,1500 nM
same,TGI PANC-1,[5]; PANC-1,3.50E−06 Molar
same,CC50,[5]; PANC-1,5.87 µM
same,GI50,[6]; HELA-APL,951 nM
same,TGI HELA-APL,[6]; HELA-APL,2.10E−06 Molar
same,CC50,[6]; HELA-APL,4.65 µM
same,TGI HT-29,[7]; HT-29,2.41E−07 Molar
same,GI50,[7]; HT-29,124 nM
same,CC50,[7]; HT-29,467 nM
same,GI50,[8]; SRB,268 nM
same,LC50 (concentration causing 50% net cell killing),[8]; SRB,2690 nM
same,TGI IGROV,[8]; SRB,8.98E−07 Molar
same,GI50,[9]; HELA,329 nM
same,TGI HELA,[9]; HELA,1.19E−06 Molar
same,CC50,[9]; HELA,3510 nM
same,TGI A-549,[10]; A-549,2.05E−06 Molar
same,GI50,[10]; A-549,886 nM
same,CC50,[10]; A-549,4760 nM
same,GI50,[11]; LOVO-DOX,139 nM
same,TGI LOVO-DOX,[11]; LOVO-DOX,3.10E−07 Molar
same,CC50,[11]; LOVO-DOX,3930 nM
same,GI50,[12]; SRB,839 nM
same,TGI MEL-28,[12]; SRB,1.73E−06 Molar
same,CC50,[12]; SRB,3540 nM
same,TGI LN-caP,[13]; SRB,1.99E−06 Molar
same,GI50,[13]; SRB,1020 nM
same,CC50,[13]; SRB,3.89 µM
same,GI50,[14]; LOVO,129 nM
same,TGI LOVO,[14]; LOVO,2.53E−07 Molar
same,CC50,[14]; LOVO,495 nM
"C/C=C1\NC(=O)[C@H](Cc2ccccc2)NC(=O)[C@@H](C(C)C)NC(=O)[C@@H]([C@@H](C)CC)NC(=O)[C@H](NC(=O)[C@H](NC(=O)[C@H](CCCN)NC(=O)[C@H]2CCCN2C(=O)[C@H](NC(=O)[C@@H](NC(=O)[C@@H](NC(=O)[C@H](NC(=O)CCCCCCC)C(C)C)[C@@H](C)O)C(C)C)C(C)C)[C@@H](C)CC)[C@@H](C)OC(=O)[C@H](C(C)C)NC1=O [Compound 18, [Oct^14]-KF]",GI50,[1],147 nM
same,TGI IGROV-ET,[1],3.02E−07 Molar
same,CC50,[1],2.01 µM
same,GI50,[2],121 nM
same,LC50,[2],536 nM
same,TGI SK-BR-3,[2],3.02E−07 Molar
same,GI50,[3],2410 nM
same,CC50,[3],4.02 µM
same,GI50,[4],149 nM
same,LC50 (concentration causing 50% net cell kill),[4],1470 nM
same,TGI DU-145,[4],6.70E−07 Molar
same,GI50,[5],2010 nM
same,TGI PANC-1,[5],3.35E−06 Molar
same,CC50,[5],6.03 µM
same,GI50,[6],536 nM
same,TGI HELA-APL,[6],1.07E−06 Molar
same,CC50,[6],3.35 µM
same,TGI HT-29,[7],3.22E−07 Molar
same,GI50,[7],201 nM
same,CC50,[7],536 nM
same,GI50,[8],168 nM
same,LC50 (concentration causing 50% net cell killing),[8],1070 nM
same,TGI IGROV,[8],3.02E−07 Molar
same,GI50,[9],288 nM
same,TGI HELA,[9],8.04E−07 Molar
same,CC50,[9],1680 nM
same,TGI A-549,[10],2.82E−07 Molar
same,GI50,[10],134 nM
same,CC50,[10],1210 nM
same,GI50,[11],107 nM
same,TGI LOVO-DOX,[11],1.68E−07 Molar
same,CC50,[11],335 nM
same,GI50,[12],670 nM
same,TGI MEL-28,[12],1.14E−06 Molar
same,CC50,[12],1680 nM
same,TGI LN-caP,[13],1.34E−06 Molar
same,GI50,[13],402 nM
same,CC50,[13],3.35 µM
same,GI50,[14],188 nM
same,TGI LOVO,[14],2.68E−07 Molar
same,CC50,[14],402 nM
"C/C=C1\NC(=O)[C@H](Cc2ccccc2)NC(=O)[C@@H](C(C)C)NC(=O)[C@@H]([C@@H](C)CC)NC(=O)[C@H](NC(=O)[C@H](NC(=O)[C@H](CCCN)NC(=O)[C@H]2CCCN2C(=O)[C@H](NC(=O)[C@@H](NC(=O)[C@@H](NC(=O)[C@H](NC(=O)CC[C@H](C)CC)C(C)C)[C@@H](C)O)C(C)C)C(C)C)[C@@H](C)CC)[C@@H](C)OC(=O)[C@H](C(C)C)NC1=O [Compound 16, [(4R)-MeHex^14]-KF]",GI50,[1],805 nM
same,TGI IGROV-ET,[1],1.62E−06 Molar
same,CC50,[1],3.26 µM
same,GI50,[2],1250 nM
same,LC50,[2],3860 nM
same,TGI SK-BR-3,[2],2.20E−06 Molar
same,GI50,[3],3730 nM
same,TGI K-562,[3],6.77E−06 Molar
same,CC50,[3],≥ 6.77 µM
same,GI50,[4],1200 nM
same,LC50 (concentration causing 50% net cell kill),[4],3820 nM
same,TGI DU-145,[4],2.14E−06 Molar
same,GI50,[5],4700 nM
same,TGI PANC-1,[5],4.24E−06 Molar
same,CC50,[5],4.24 µM
same,GI50,[6],1560 nM
same,TGI HELA-APL,[6],3.47E−06 Molar
same,CC50,[6],≥ 6.77 µM
same,TGI HT-29,[7],1.54E−06 Molar
same,GI50,[7],738 nM
same,CC50,[7],3220 nM
same,GI50,[8],941 nM
same,LC50 (concentration causing 50% net cell killing),[8],3500 nM
same,TGI IGROV,[8],1.81E−06 Molar
same,GI50,[9],1050 nM
same,TGI HELA,[9],1.93E−06 Molar
same,CC50,[9],3550 nM
same,TGI A-549,[10],2.26E−06 Molar
same,GI50,[10],1200 nM
same,CC50,[10],4240 nM
same,GI50,[11],288 nM
same,TGI LOVO-DOX,[11],7.71E−07 Molar
same,CC50,[11],2190 nM
same,GI50,[12],1140 nM
same,TGI MEL-28,[12],2.09E−06 Molar
same,CC50,[12],3800 nM
same,TGI LN-caP,[13],2.46E−06 Molar
same,GI50,[13],1500 nM
same,CC50,[13],4.04 µM
same,GI50,[14],248 nM
same,TGI LOVO,[14],7.78E−07 Molar
same,CC50,[14],2280 nM
